Reference: US7135625B2, “Gene concerning brassinosteroid-sensitivity of plants and utilization thereof” (National Institute of Agrobiological Sciences, priority 2000, dated 2006)

Key:
Assay type in all cases: in vivo, Oriza sativa
[1] = tested on: OsBRI1 mRNA; assay: Effect of exogenous brassinolide on the level of OsBRI1 mRNA (RNA hybridization); conditions: light- and dark-grown seedlings, 0.9% agar plates with 1 μM brassinolide, six days
Excerpt: RNA was isolated from various rice tissues as described in literature (Chomczynski, P. and Sacchi, N.: Anal. Biochem. (1987) 162:156). Ten μg of total RNA were electrophoresed in a 1% agarose gel, then transferred to a Hybond N^+ membrane (Amersham), and analyzed by RNA gel blot hybridization. The present inventors used a partial cDNA fragment (Ser^740 to Asp^1116 corresponding to the kinase domain), as a probe which specifically hybridized to the genomic DNA fragment encoding OsBRI1. DNA hybridization analysis was performed with the same probe and hybridization conditions as described above.
The present inventors also tested the effects of exogenously applied brassinolide and light on the level of OsBRI1 mRNA. Germinating seeds were placed on 0.9% agar plates with or without 1 μM brassinolide and grown for six days in the light or dark.

[2] = tested on: d61-1 and d61-2 mutant seedlings; assay: Germination of seeds on agar plates with or without brassinolide, d61 mutants; conditions: 1 μM brassinolide on agar plates, observed 1 day after germination
Procedure: (§1) Rice (Oriza sativa) seeds were soaked in distilled water and made to imbibe for 48 h at 30° C. After washing the seeds with distilled water several times, the seeds were germinated in a dark chamber at 30° C. for 8 days. Rice plants were grown in the field or in the greenhouse at 30° C. (day) and 24° C. (night).
(§2) Next, seeds of the wild type and mutant plants were germinated on agar plates with or without 1 μM brassinolide. The characteristics of whole seedlings were observed 1 day after germination.

[3] = tested on: d61 mutants; assay: Restoration of dwarfism of d61 mutants by application of brassinolide
[4] = tested on: wild type T65 plant; assay: Lamina joint test, wild type; conditions: wild type T65, first leaf, 10^−3 and 10^−2 μg/ml
Excerpt: (§3) The degree of bending between the leaf blade and leaf sheath in rice is well known to be sensitive to the concentration of brassinolide or its related compounds. This unusual character of rice leaf is the basis for a quantitative bioassay for brassinosteroids, known as the lamina joint test (Wada, Ketal. (1981) Plant and Cell Physiol. 22, 323–325), even though the biological function of endogenous brassinosteroids in monocotyledonous plants including rice remains unknown. If the mutants are less sensitive to brassinosteroids, the degree of bending between the leaf blade and sheath of the mutant plants will be less than that of the wild type plants.
(§4) Lamina joints of first leave of wild type T65 plant (the background strain of the mutants), d61-1 mutant, and d61-2 mutant were tested with 10^−3 and 10^−2 μg/ml of brassinosteroids, respectively.

[5] = tested on: d61-1 mutant and d61-2 mutant; assay: Lamina joint test, d61 mutants
Excerpt: as §3, §4

[6] = tested on: wild type plants (rice seedlings); assay: Germination of seeds on agar plates with or without brassinolide, wild type; conditions: 1 μM brassinolide on agar plates, observed 1 day after germination
Procedure: as §1, §2

In the case of CC(C)[C@H](C)[C@@H](O)[C@H](O)[C@@H](C)[C@H]1CC[C@H]2[C@@H]3COC(=O)[C@H]4C[C@H](O)[C@H](O)C[C@]4(C)[C@H]3CC[C@]12C [brassinolide], the “level of OsBRI1 expression” value [1] is reported as “reduced level of OsBRI1 expression”, the growth of seedlings [2] is reported as “normal growth patterns” and the growth of seedlings ([2]; listed as BL) is reported as “not affected”. The “restoration of the dwarfism of the d61 mutants” value [3] was “could not be achieved”, the “degree of bending between leaf blade and leaf sheath” value (“degree” below) [4] was “even more bent” and the “degree” value ([5]; d61-1 and d61-2 mutants, first leaf, 10^−3 and 10^−2 μg/ml) was “degree of bending increased”. For the same compound, the “degree” value ([5]; d61-2 mutant, 10^−2 μg/ml brassinolide) was “bent at less than a right angle”, the “growth of seedlings (coleoptile, foliage leaves)” value [6] was “elongated abnormally” and the root elongation [6] was “inhibited”. The “growth of seedlings (coleoptile, foliage leaves)” value ([6]; listed as BL) was “induced abnormal growth”.
